Experiments:
Experiment in all cases: MTT cell proliferation assay
Format in all cases: cell-based
Z138 cells = conditions: Homo sapiens, Z-138, Z138 cells; approximately 64-72 hours incubation; read-out: MTT Assay IC50, Z-138
In short: (§1)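 5,000-10,000 cells/well, overnight attach; 8 conc., 1 nM–30 μM; MTT ~4 h; formazan solubilized, OD 490 nm; % inhibition = (1−(ODo/OD))×100 vs neg. control; mostly duplicate, mean±SE.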

MS751 cells = conditions: Homo sapiens, MS751, MS751 cells; approximately 64-72 hours incubation; read-out: MTT Assay IC50, MS-751
In short: as §1

3T3 cells = conditions: Mus musculus, NIH3T3, approximately 64-72 hours incubation, read-out: MTT Assay IC50, 3T3
In short: as §1

Compound	IC50 (Z138 cells) [µM]	IC50 (MS751 cells) [µM]	IC50 (3T3 cells) [µM]
Nc1ccc(/C=C/C(=O)NCc2cc3cc(-c4ccc(C(=O)N5CCC(F)(F)CC5)cc4)cc(-c4cc(Cl)c(F)cc4F)c3o2)cn1 [Compound 698, (E)-3-(6-aminopyridin-3-yl)-N-((7-(5-chloro-2,4-difluorophenyl)-5-(4-(4,4-difluoropiperidine-1-carbonyl)phenyl)benzofuran-2-yl)methyl)acrylamide]	< 0.1	< 0.1	0.1 to 5
Nc1ccc(/C=C/C(=O)NCc2cc3cc(-c4ccc(C(=O)N5CCC(F)(F)CC5)cc4)cc(-c4cc5ccccc5o4)c3o2)cn1 [Compound 699]	< 0.1	< 0.1	5 to 10
Nc1ccc(/C=C/C(=O)NCc2cc3cc(-c4ccc(C(=O)N5CCC(F)(F)CC5)cc4)cc(-c4cc(Cl)cc(Cl)c4)c3o2)cn1 [Compound 700, (E)-3-(6-aminopyridin-3-yl)-N-((7-(3,5-dichlorophenyl)-5-(4-(4,4-difluoropiperidine-1-carbonyl)phenyl)benzofuran-2-yl)methyl)acrylamide]	< 0.1	< 0.1	0.1 to 5
Nc1ccc(/C=C/C(=O)NCc2cc3cc(-c4ccc(Oc5ccc(F)cc5)cc4)cc(-c4ccc(F)cc4)c3o2)cn1 [Compound 701, (E)-3-(6-aminopyridin-3-yl)-N-((5-(4-(4-fluorophenoxy)phenyl)-7-(4-fluorophenyl)benzofuran-2-yl)methyl)acrylamide]	0.1 to 5	0.1 to 5	> 10
Nc1ccc(/C=C/C(=O)NCc2cc3cc(C(F)(F)F)cc(-c4ccc(C(=O)N5CCC(F)(F)CC5)cc4)c3o2)cn1 [Compound 702, (E)-3-(6-aminopyridin-3-yl)-N-((7-(4-(4,4-difluoropiperidine-1-carbonyl)phenyl)-5-(trifluoromethyl)benzofuran-2-yl)methyl)acrylamide]	0.1 to 5	5 to 10	> 10
Nc1ccc(/C=C/C(=O)NCc2cc3cc(-c4ccc(C(=O)c5ccc(F)cc5)cn4)cc(-c4ccc(F)cc4)c3o2)cn1 [Compound 703, (E)-3-(6-aminopyridin-3-yl)-N-((5-(5-(4-fluorobenzoyl)pyridin-2-yl)-7-(4-fluorophenyl)benzofuran-2-yl)methyl)acrylamide]	< 0.1	0.1 to 5	5 to 10
Nc1ccc(/C=C/C(=O)NCc2cc3cc(-c4ccc(C(O)c5ccc(F)cc5)cn4)cc(-c4ccc(F)cc4)c3o2)cn1 (stereo not drawn) [Compound 704, (E)-3-(6-aminopyridin-3-yl)-N-((7-(4-fluorophenyl)-5-(5-((4-fluorophenyl)(hydroxy)methyl)pyridin-2-yl)benzofuran-2-yl)methyl)acrylamide]	0.1 to 5	0.1 to 5	> 10
Nc1ccc(/C=C/C(=O)NCc2cc3cc(-c4ccc(C(=S)N5CCC(F)(F)CC5)cc4)cc(-c4ccncc4)c3o2)cn1 [Compound 705, (E)-3-(6-aminopyridin-3-yl)-N-((5-(4-(4,4-difluoropiperidine-1-carbonothioyl)phenyl)-7-(pyridin-4-yl)benzofuran-2-yl)methyl)acrylamide]	< 0.1	< 0.1	0.1 to 5
Nc1ccc(/C=C/C(=O)NCc2cc3cc(-c4ccc(C(=S)N5CCC(F)(F)CC5)cc4)cc(-c4ccc(F)cc4F)c3o2)cn1 [Compound 706, (E)-3-(6-aminopyridin-3-yl)-N-((7-(2,4-difluorophenyl)-5-(4-(4,4-difluoropiperidine-1-carbonothioyl)phenyl)benzofuran-2-yl)methyl)acrylamide]	< 0.1	< 0.1	0.1 to 5
Nc1ccc(/C=C/C(=O)NCc2cc3cc(-c4ccc(C(=S)N5CCC(F)(F)CC5)cn4)cc(-c4ccncc4)c3o2)cn1 [Compound 707, (E)-3-(6-aminopyridin-3-yl)-N-((5-(5-(4,4-difluoropiperidine-1-carbonothioyl)pyridin-2-yl)-7-(pyridin-4-yl)benzofuran-2-yl)methyl)acrylamide]	< 0.1	< 0.1	0.1 to 5

From US12331040B2 (Karyopharm Therapeutics Inc., priority 2013, dated 2025)
